The source made the active and inactive calls. The rule behind the calls is not given here.
Experiments:
[1] = test system: OVCAR-8; assay: Antiproliferative activity against human OVCAR8 cells at 10^-5 M after 48 hrs by SRB assay; assay type: functional; settings: OVCAR-8, 48 h, read-out: GI
[2] = test system: NCI-H460; assay: Antiproliferative activity against human NCI-H460 cells at 10^-5 M after 48 hrs by SRB assay; assay type: functional; settings: NCI-H460, 48 h, read-out: GI
[3] = test system: HOP-62; assay: Antiproliferative activity against human HOP62 cells at 10^-5 M after 48 hrs by SRB assay; assay type: functional; settings: HOP-62, 48 h, read-out: GI
[4] = test system: PC-3; assay: Antiproliferative activity against human PC3 cells at 10^-5 M after 48 hrs by SRB assay; assay type: functional; settings: PC-3, 48 h, read-out: GI
[5] = test system: SF-295; assay: Antiproliferative activity against human SF295 cells at 10^-5 M after 48 hrs by SRB assay; assay type: functional; settings: SF-295, 48 h, read-out: GI
[6] = test system: RPMI-8226; assay: Antiproliferative activity against human RPMI8226 cells at 10^-5 M after 48 hrs by SRB assay; assay type: functional; settings: RPMI-8226, 48 h, read-out: GI
[7] = test system: HT-29; assay: Antiproliferative activity against human HT-29 cells at 10^-5 M after 48 hrs by SRB assay; assay type: functional; settings: HT-29, 48 h, read-out: GI
[8] = test system: MDA-MB-435; assay: Antiproliferative activity against human MDA-MB-435 cells at 10^-5 M after 48 hrs by SRB assay; assay type: functional; settings: MDA-MB-435, 48 h, read-out: GI
[9] = test system: T47D; assay: Antiproliferative activity against human T47D cells at 10^-5 M after 48 hrs by SRB assay; assay type: functional; settings: read-out: GI
[10] = test system: SR; assay: Antiproliferative activity against human SR cells at 10^-5 M after 48 hrs by SRB assay; assay type: functional; settings: read-out: GI
[11] = test system: UACC-62; assay: Antiproliferative activity against human UACC62 cells at 10^-5 M after 48 hrs by SRB assay; assay type: functional; settings: UACC-62, 48 h, read-out: GI
[12] = test system: CCRF-CEM; assay: Antiproliferative activity against human CCRF-CEM cells at 10^-5 M after 48 hrs by SRB assay; assay type: functional; settings: read-out: GI
[13] = test system: LOX IMVI; assay: Antiproliferative activity against human LOXIMVI cells at 10^-5 M after 48 hrs by SRB assay; assay type: functional; settings: read-out: GI
[14] = test system: OVCAR-4; assay: Antiproliferative activity against human OVCAR4 cells at 10^-5 M after 48 hrs by SRB assay; assay type: functional; settings: OVCAR-4, 48 h, read-out: GI
[15] = test system: A498; assay: Antiproliferative activity against human A498 cells at 10^-5 M after 48 hrs by SRB assay; assay type: functional; settings: A498, 48 h, read-out: GI
[16] = test system: NCI-H23; assay: Antiproliferative activity against human NCI-H23 cells at 10^-5 M after 48 hrs by SRB assay; assay type: functional; settings: NCI-H23, 48 h, read-out: GI
[17] = test system: KM12; assay: Antiproliferative activity against human KM12 cells at 10^-5 M after 48 hrs by SRB assay; assay type: functional; settings: KM12, 48 h, read-out: GI
[18] = test system: RXF 393; assay: Antiproliferative activity against human RXF393 cells at 10^-5 M after 48 hrs by SRB assay; assay type: functional; settings: RXF 393, 48 h, read-out: GI
[19] = test system: M14; assay: Antiproliferative activity against human M14 cells at 10^-5 M after 48 hrs by SRB assay; assay type: functional; settings: M14, 48 h, read-out: GI
[20] = test system: SF-268; assay: Antiproliferative activity against human SF268 cells at 10^-5 M after 48 hrs by SRB assay; assay type: functional; settings: SF-268, 48 h, read-out: GI
[21] = test system: OVCAR-3; assay: Antiproliferative activity against human OVCAR3 cells at 10^-5 M after 48 hrs by SRB assay; assay type: functional; settings: OVCAR-3, 48 h, read-out: GI
[22] = test system: TK-10; assay: Antiproliferative activity against human TK10 cells at 10^-5 M after 48 hrs by SRB assay; assay type: functional; settings: TK-10, 48 h, read-out: GI
[23] = test system: A549; assay: Induction of cell cycle arrest in human A549 cells assessed as accumulation at S phase at 10 uM after 24 hrs by FITC-labeled anti-BrdU antibody/7AAD staining based FACS calibur flow cytometric analysis (reference value: 20.9 %); assay type: functional
[24] = test system: A549; assay: Induction of cell cycle arrest in human A549 cells assessed accumulation at G2/M phase at 25 uM after 24 hrs in presence of PFTalpha by FITC-labeled anti-BrdU antibody/7AAD staining based FACS calibur flow cytometric analysis (reference value: 63.9%); assay type: functional
[25] = test system: WI-38; assay: Upregulation of p21 expression in human WI38 cells at 5 to 25 uM after 24 hrs by Western blot analysis; assay type: ADME, cell-based; settings: wi-38, 24 h
[26] = test system: A549; assay: Induction of cell cycle arrest in human A549 cells assessed as accumulation at sub G1 phase at 15 uM after 24 hrs by FITC-labeled anti-BrdU antibody/7AAD staining based FACS calibur flow cytometric analysis (reference value: 0.82 %); assay type: functional
[27] = test system: A549; assay: Downregulation of cyclinB1 expression in human A549 cells after 24 hrs by Western blot analysis; assay type: functional, cell-based
[28] = test system: A549; assay: Induction of cell cycle arrest in human A549 cells assessed as accumulation at sub G1 phase at 10 uM after 24 hrs by FITC-labeled anti-BrdU antibody/7AAD staining based FACS calibur flow cytometric analysis (reference value: 0.82 %); assay type: functional
[29] = test system: A549; assay: Induction of p21 expression in human A549 cells at 25 uM after 24 hrs in presence of PFTalpha by Western blot analysis; assay type: functional, cell-based
[30] = test system: WI-38; assay: Upregulation of p53 expression human WI38 cells at 5 to 25 uM after 24 hrs by Western blot analysis; assay type: ADME, cell-based; settings: wi-38, 24 h
[31] = test system: A549; assay: Upregulation of p53 expression in human A549 cells after 24 hrs by Western blot analysis; assay type: functional, cell-based
[32] = test system: A549; assay: Induction of cell cycle arrest in human A549 cells assessed as accumulation at G2/M phase after 24 hrs by FITC-labeled FACS calibur flow cytometric analysis; assay type: functional, cell-based
[33] = test system: A549; assay: Induction of cell cycle arrest in human A549 cells assessed as accumulation at sub G1 phase at 5 uM after 24 hrs by FITC-labeled anti-BrdU antibody/7AAD staining based FACS calibur flow cytometric analysis (reference value: 0.82 %); assay type: functional
[34] = test system: A549; assay: Upregulation of p21 expression in human A549 cells after 24 hrs by Western blot analysis; assay type: functional, cell-based
[35] = test system: A549; assay: Induction of cell cycle arrest in human A549 cells assessed as accumulation at sub G1 phase at 25 uM after 24 hrs by FITC-labeled anti-BrdU antibody/7AAD staining based FACS calibur flow cytometric analysis (reference value: 0.82 %); assay type: functional
[36] = test system: A549; assay: Induction of cell cycle arrest in human A549 cells assessed as accumulation at S phase at 5 uM after 24 hrs by FITC-labeled anti-BrdU antibody/7AAD staining based FACS calibur flow cytometric analysis (reference value: 20.9 %); assay type: functional
[37] = test system: A549; assay: Induction of cell cycle arrest in human A549 cells assessed as accumulation at G2/M phase at 5 uM after 24 hrs by FITC-labeled anti-BrdU antibody/7AAD staining based FACS calibur flow cytometric analysis (reference value: 12.61 %); assay type: functional

Compound `COc1ccc(NC(=O)CN2CCN(c3cc4c(cc3F)c(=O)c(C(=O)O)cn4C3CC3)CC2)cc1` has an inhibition of growth at 10 µM [1] of 6%, an inhibition of growth at 10 µM [2] of 6.32% and an inhibition of growth at 10 µM [3] of 13%. For the same compound, the inhibition of growth at 10 µM [4] was 11.6%, the inhibition of growth at 10 µM [5] was 2.32% and the inhibition of growth at 10 µM [6] was 3.36%. The inhibition of growth at 10 µM [7] was 0.04%, the inhibition of growth at 10 µM [8] was 1.51% and the inhibition of growth at 10 µM [9] was 24.5%. The inhibition of growth at 10 µM [10] was 0%, the inhibition of growth at 10 µM [11] was 10.5% and the inhibition of growth at 10 µM [12] was 0%. For the same compound, the inhibition of growth at 10 µM [13] was 39%, the inhibition of growth at 10 µM [14] was 0% and the inhibition of growth at 10 µM [15] was 37.6%. It also gave an inhibition of growth at 10 µM [16] of 7.04%, an inhibition of growth at 10 µM [17] of 6.61% and an inhibition of growth at 10 µM [18] of 11.8%. For the same compound, the inhibition of growth at 10 µM [19] was 8.75%, the inhibition of growth at 10 µM [20] was 6.72% and the inhibition of growth at 10 µM [21] was 0%.

`COc1cc(NC(=O)CN2CCN(c3cc4c(cc3F)c(=O)c(C(=O)O)cn4C3CC3)CC2)cc(OC)c1OC` showed an inhibition of growth at 10 µM [1] of 0%, an inhibition of growth at 10 µM [2] of 0% and an inhibition of growth at 10 µM [3] of 8.5%. The inhibition of growth at 10 µM [4] was 14.5%, the inhibition of growth at 10 µM [5] was 0% and the inhibition of growth at 10 µM [6] was 2.8%. For the same compound, the inhibition of growth at 10 µM [7] was 1.21%, the inhibition of growth at 10 µM [22] was 10.5% and the inhibition of growth at 10 µM [8] was 0%. For the same compound, the inhibition of growth at 10 µM [9] was 9.38%, the inhibition of growth at 10 µM [10] was 0% and the inhibition of growth at 10 µM [11] was 0.79%. For the same compound, the inhibition of growth at 10 µM [12] was 23.2%, the inhibition of growth at 10 µM [13] was 16.1% and the inhibition of growth at 10 µM [14] was 0%. It also gave an inhibition of growth at 10 µM [15] of 0%, an inhibition of growth at 10 µM [16] of 0% and an inhibition of growth at 10 µM [17] of 0%. The inhibition of growth at 10 µM [18] was 0%, the inhibition of growth at 10 µM [19] was 0% and the inhibition of growth at 10 µM [20] was 0%. For the same compound, the inhibition of growth at 10 µM [21] was 6.06%.

`O=C(CN1CCN(c2cc3c(cc2F)c(=O)c(C(=O)O)cn3C2CC2)CC1)Nc1ccc(Cl)cc1` showed an inhibition of growth at 10 µM [1] of 21.2%, an inhibition of growth at 10 µM [2] of 12.1% and an inhibition of growth at 10 µM [3] of 28.3%. For the same compound, the inhibition of growth at 10 µM [4] was 19.9%, the inhibition of growth at 10 µM [5] was 12.1% and the Activity [23] was 16.7%. The inhibition of growth at 10 µM [6] was 27.8%, the Activity [24] was 23.7% and the inhibition of growth at 10 µM [7] was 42.1%. The inhibition of growth at 10 µM [22] was 13.9%, the Activity [25] was “Non-Toxic” and the inhibition of growth at 10 µM [8] was 11.7%. The Activity [26] was 3.28%, the Activity [27] was “Dose-dependent effect” and the inhibition of growth at 10 µM [9] was 40.9%. The inhibition of growth at 10 µM [10] was 28.9%, the inhibition of growth at 10 µM [11] was 36.4% and the Activity [28] was 4.19%. For the same compound, the inhibition of growth at 10 µM [12] was 23.6%, the inhibition of growth at 10 µM [13] was 38.9% and the inhibition of growth at 10 µM [14] was 14.7%. For the same compound, the Activity [29] was “inactive”, the Activity [30] was “Non-Toxic” and the inhibition of growth at 10 µM [15] was 31.4%. For the same compound, the inhibition of growth at 10 µM [16] was 5.51%, the Activity [31] was “Dose-dependent effect” and the inhibition of growth at 10 µM [17] was 17.1%. The Activity [32] was “Dose-dependent effect”, the Activity [33] was 1.65% and the inhibition of growth at 10 µM [18] was 25.3%. The inhibition of growth at 10 µM [19] was 18.2%, the inhibition of growth at 10 µM [20] was 8.82% and the Activity [34] was “Dose-dependent effect”. The Activity [35] was 2.6%, the Activity [36] was 16.2% and the inhibition of growth at 10 µM [21] was 7.56%. The Activity [37] was 13.21%.

— ChEMBL document CHEMBL4428075, “New antiproliferative 7-(4-(N-substituted carbamoylmethyl)piperazin-1-yl) derivatives of ciprofloxacin induce cell cycle arrest at G2/M phase” (Bioorg Med Chem, 2016)
